The values below come from patent US8877707B2, “Inhibitors of HCV NS5A” (Presidio Pharmaceuticals, Inc., priority 2010, dated 2014).

This assay relates to HCV genotype 1b replicon in Huh 7 cells. As to the kind of experiment: HCV replicon assay (1b_Huh-Luc/Neo-ET cell line, luciferase readout). The class given is cell-based. To be noted: Hepatitis C virus, Huh-7; HCV 1b replicon; read-out: Inhibition of HCV genotype 1b. In a few lines:
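Replicon level was read as luciferase signal after 72 h compound exposure, triplicate wells, starting the day after cells were plated. Cell line: 1b_Huh-Luc/Neo-ET. Values normalised to control as percent, and EC50 fitted with a variable-slope sigmoid; determinations repeated.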

A value given as a limit tells only on which side of the number the result lay.

As to `CC[C@H](C)[C@H](NC(=O)OC)C(=O)N1CCC[C@H]1c1ncc(-c2ccc3nc(-c4ccc(-c5cnc([C@@H]6CCCN6C(=O)[C@H](NC(=O)OC)c6ccccc6)[nH]5)cc4)ccc3c2)[nH]1` [compound 492], the EC50 was less than 1 nM.

Consider `COC(=O)N[C@H](C(=O)N1CCC[C@H]1c1ncc(-c2ccc3nc(-c4ccc(-c5cnc([C@@H]6CN(C(C)=O)CCN6C(=O)[C@@H](NC(=O)OC)C(C)C)[nH]5)cc4)ccc3c2)[nH]1)C(C)C` [compound 493], for which the EC50 was less than 1 nM.

In the case of `COC(=O)N[C@@H](C(=O)N1CCC[C@H]1c1ncc(-c2ccc3nc(-c4ccc(-c5cnc([C@@H]6CN(C(C)=O)CCN6C(=O)[C@H](NC(=O)OC)c6ccccc6)[nH]5)cc4)ccc3c2)[nH]1)c1ccccc1` [compound 494], the EC50 is less than 1 nM.

`COC(=O)N[C@H](C(=O)N1CCN(C(C)=O)C[C@H]1c1ncc(-c2ccc(-c3ccc4cc(-c5cnc([C@@H]6CCCN6C(=O)[C@@H](NC(=O)OC)C6CCOCC6)[nH]5)ccc4n3)cc2)[nH]1)C(C)C` [compound 495]: the EC50 was less than 1 nM.

For the compound `COC[C@H](NC(=O)OC)C(=O)N1CCC[C@H]1c1ncc(-c2ccc3cc(-c4ccc(-c5cnc([C@@H]6CCCN6C(=O)[C@H](NC(=O)OC)c6cccs6)[nH]5)cc4)ccc3c2)[nH]1` [compound 496], the EC50 is less than 1 nM.

For `COC(=O)N[C@H](C(=O)N1CCC[C@H]1c1ncc(-c2ccc3cc(-c4ccc(-c5cnc([C@@H]6CCCN6C(=O)[C@H](NC(=O)OC)c6cccs6)[nH]5)cc4)ccc3c2)[nH]1)C(C)C` [compound 497], the EC50 was less than 1 nM.

With `COC(=O)N[C@H](C(=O)N1CCC[C@H]1c1ncc(-c2ccc3cc(-c4ccc(-c5cnc([C@@H]6CCCN6C(=O)[C@H](NC(=O)OC)c6cccs6)[nH]5)cc4)ccc3c2)[nH]1)C(C)O` (stereo partly drawn) [compound 498], the EC50 was less than 1 nM.

Take `COC(=O)N[C@@H](C)C(=O)N1CCC[C@H]1c1ncc(-c2ccc3cc(-c4ccc(-c5cnc([C@@H]6CCCN6C(=O)[C@H](NC(=O)OC)c6ccccc6)[nH]5)nn4)ccc3c2)[nH]1` [compound 499]: the EC50 is less than 1 nM.

In the case of `COC(=O)N[C@H](C(=O)N1CCC[C@H]1c1ncc(-c2ccc3cc(-c4ccc(-c5cnc([C@@H]6CCCN6C(=O)[C@H](NC(=O)OC)c6ccccc6)[nH]5)nn4)ccc3c2)[nH]1)[C@@H](C)OC` [compound 500], the EC50 is less than 1 nM.

For the compound `COC(=O)N[C@H](C(=O)N1CCC[C@H]1c1ncc(-c2ccc3cc(-c4ccc(-c5cnc([C@@H]6CCCN6C(=O)[C@H](NC(=O)OC)c6ccccc6)[nH]5)nn4)ccc3c2)[nH]1)[C@@H](C)O` [compound 501], the EC50 is less than 1 nM.

Take `COC(=O)N[C@@H](C)C(=O)N1CCC[C@H]1c1ncc(-c2ccc3cc(-c4ccc(-c5cnc([C@@H]6CCCN6C(=O)[C@H](NC(=O)OC)c6cccs6)[nH]5)cc4)ccc3c2)[nH]1` [compound 502]: the EC50 is less than 1 nM.

With `CC[C@H](C)[C@H](NC(=O)OC)C(=O)N1CCC[C@H]1c1ncc(-c2ccc(-c3ccc4cc(-c5cnc([C@@H]6CCCN6C(=O)[C@@H](NC(=O)OC)[C@@H](C)OC)[nH]5)ccc4c3)cc2)[nH]1` [compound 503], the EC50 was less than 1 nM.

Regarding `COC(=O)N[C@H](C(=O)N1CCC[C@H]1c1ncc(-c2ccc(-c3ccc4cc(-c5cnc([C@@H]6CCCN6C(=O)[C@@H](NC(=O)OC)[C@@H](C)OC)[nH]5)ccc4c3)cc2)[nH]1)C1CCCC1` [compound 504], the EC50 was less than 1 nM.

On to `CCC(CC)[C@H](NC(=O)OC)C(=O)N1CCC[C@H]1c1ncc(-c2ccc(-c3ccc4cc(-c5cnc([C@@H]6CCCN6C(=O)[C@@H](NC(=O)OC)[C@@H](C)OC)[nH]5)ccc4c3)cc2)[nH]1` [compound 505], for which the EC50 was less than 1 nM.

As for `COC(=O)N[C@H](C(=O)N1CCC[C@H]1c1ncc(-c2ccc3cc(-c4cnc(-c5cnc([C@@H]6CCCN6C(=O)[C@@H](NC(=O)OC)C(C)C)[nH]5)cn4)ccc3c2)[nH]1)C(C)C` [compound 506], the EC50 was less than 1 nM.

`COC(=O)N[C@@H](C(=O)N1CCC[C@H]1c1ncc(-c2ccc3nc(-c4ccc5nc([C@@H]6CCCN6C(=O)[C@H](NC(=O)OC)c6ccccc6)[nH]c5c4)ccc3c2)[nH]1)c1ccccc1` [compound 507]: the EC50 is less than 1 nM.

With `O=C(N[C@@H](C(=O)N1CCC[C@H]1c1ncc(-c2ccc3nc(-c4ccc5nc([C@@H]6CCCN6C(=O)[C@H](NC(=O)OC6CCOCC6)c6ccccc6)[nH]c5c4)ccc3c2)[nH]1)c1ccccc1)OC1CCOCC1` [compound 508], the EC50 is less than 1 nM.

In the case of `COC(=O)N[C@H](C(=O)N1CCC[C@H]1c1nc2ccc(-c3ccc4cc(-c5cnc([C@@H]6CCCN6C(=O)[C@H](NC(=O)OC6CCOCC6)c6ccccc6)[nH]5)ccc4n3)cc2[nH]1)C(C)C` [compound 509], the EC50 was less than 1 nM.

Regarding `COC(=O)N[C@H](C(=O)N1CCC[C@H]1c1nc2ccc(-c3ccc4cc(-c5cnc([C@@H]6CCCN6C(=O)[C@@H](NC(=O)OC)[C@@H](C)OC)[nH]5)ccc4c3)cc2[nH]1)C(C)C` [compound 510], the EC50 was less than 1 nM.

Turning to `CC[C@H](C)[C@H](NC(=O)OC)C(=O)N1CCC[C@H]1c1nc2ccc(-c3ccc4cc(-c5cnc([C@@H]6CCCN6C(=O)[C@@H](NC(=O)OC)[C@@H](C)OC)[nH]5)ccc4c3)cc2[nH]1` [compound 511], the EC50 was less than 1 nM.

Regarding `COC(=O)NC(C(=O)N1CCC[C@H]1c1ncc(-c2ccc3cc(-c4ccc5nc([C@@H]6CCCN6C(=O)C(NC(=O)OC)=C(C)C)[nH]c5c4)ccc3c2)[nH]1)=C(C)C` [compound 512], the EC50 is less than 1 nM.

With `COC[C@H](NC(=O)OC)C(=O)N1CCC[C@H]1c1ncc(-c2ccc3cc(-c4ccc5nc([C@@H]6CCCN6C(=O)[C@@H](NC(=O)OC)C(C)C)[nH]c5c4)ccc3c2)[nH]1` [compound 513], the EC50 was less than 1 nM.

As for `CC[C@H](C)[C@H](NC(=O)OC)C(=O)N1CCC[C@H]1c1nc2ccc(-c3ccc4cc(-c5cnc([C@@H]6CCCN6C(=O)[C@H](COC)NC(=O)OC)[nH]5)ccc4c3)cc2[nH]1` [compound 514], the EC50 was less than 1 nM.

On to `COC(=O)N[C@H](C(=O)N1CCC[C@H]1c1ncc(-c2ccc3cc(-c4ccc5nc([C@@H]6CCCN6C(=O)[C@@H](NC(=O)OC)C6CCCC6)[nH]c5n4)ccc3c2)[nH]1)C1CCCC1` [compound 515], for which the EC50 is less than 1 nM.

In the case of `COC(=O)N[C@H](C(=O)N1CCC[C@H]1c1ncc(-c2ccc3cc(-c4ccc5nc([C@@H]6CCCN6C(=O)[C@@H](NC(=O)OC)C6CC6)[nH]c5n4)ccc3c2)[nH]1)C1CC1` [compound 516], the EC50 was less than 1 nM.

Regarding `COC(=O)N[C@H](C(=O)N1CCC[C@H]1c1ncc(-c2ccc3cc(-c4ccc5nc([C@@H]6CCCN6C(=O)[C@@H](NC(=O)OC)C6CCCCC6)[nH]c5n4)ccc3c2)[nH]1)C1CCCCC1` [compound 517], the EC50 was less than 1 nM.

In the case of `CCC(CC)[C@H](NC(=O)OC)C(=O)N1CCC[C@H]1c1ncc(-c2ccc3cc(-c4ccc5nc([C@@H]6CCCN6C(=O)[C@@H](NC(=O)OC)C(CC)CC)[nH]c5c4)ncc3c2)[nH]1` [compound 518], the EC50 is less than 1 nM.

In the case of `COC(=O)N[C@H](C(=O)N1CCC[C@H]1c1ncc(-c2ccc3cc(-c4cnc5nc([C@@H]6CCCN6C(=O)[C@@H](NC(=O)OC)[C@@H](C)OC)[nH]c5c4)ccc3c2)[nH]1)[C@@H](C)OC` [compound 519], the EC50 is less than 1 nM.

Turning to `CCC(CC)[C@H](NC(=O)OC)C(=O)N1CCC[C@H]1c1ncc(-c2ccc3cc(-c4ccc5nc([C@@H]6CCCN6C(=O)[C@@H](NC(=O)OC)C(CC)CC)[nH]c5n4)ccc3c2)[nH]1` [compound 520], the EC50 is less than 1 nM.

As for `CC[C@H](C)[C@H](NC(=O)OC)C(=O)N1CCC[C@H]1c1ncc(-c2ccc3cc(-c4ccc5nc([C@@H]6CCCN6C(=O)[C@@H](NC(=O)OC)[C@@H](C)CC)[nH]c5n4)ccc3c2)[nH]1` [compound 521], the EC50 is less than 1 nM.

Regarding `CC[C@@H](C)[C@H](NC(=O)OC)C(=O)N1CCC[C@H]1c1ncc(-c2ccc3cc(-c4ccc5nc([C@@H]6CCCN6C(=O)[C@@H](NC(=O)OC)[C@H](C)CC)[nH]c5n4)ccc3c2)[nH]1` [compound 522], the EC50 was less than 1 nM.

Turning to `COC(=O)N[C@@H](C(=O)N1CCC[C@H]1c1ncc(-c2ccc3cc(-c4ccc5nc([C@@H]6CCCN6C(=O)[C@H](NC(=O)OC)C6=CCC=CC6)[nH]c5n4)ccc3c2)[nH]1)C1=CCC=CC1` [compound 523], the EC50 was less than 1 nM.

With `CC[C@H](C)[C@H](NC(=O)OC)C(=O)N1CCC[C@H]1c1nc2ccc(-c3ccc4cc(-c5cnc([C@@H]6CCCN6C(=O)[C@@H](NC(=O)OC)[C@@H](C)O)[nH]5)ccc4c3)cc2[nH]1` [compound 524], the EC50 was less than 1 nM.

For `COC(=O)N[C@H](C(=O)N1CCC[C@H]1c1ncc(-c2ccc3cc(-c4ccc5nc([C@@H]6CCCN6C(=O)[C@@H](NC(=O)OC)[C@@H](C)OC)[nH]c5c4)ccc3c2)[nH]1)C(C)C` [compound 525], the EC50 was less than 1 nM.

As for `CC[C@H](C)[C@H](NC(=O)OC)C(=O)N1CCC[C@H]1c1ncc(-c2ccc3cc(-c4ccc5nc([C@@H]6CCCN6C(=O)[C@@H](NC(=O)OC)[C@@H](C)OC)[nH]c5c4)ccc3c2)[nH]1` [compound 526], the EC50 was less than 1 nM.

As for `COC(=O)N[C@H](C(=O)N1CCC[C@H]1c1ncc(-c2ccc3cc(-c4cc5[nH]c([C@@H]6CCCN6C(=O)[C@@H](NC(=O)OC)C(C)C)nc5cn4)ccc3c2)[nH]1)C(C)C` [compound 527], the EC50 is less than 1 nM.

Consider `COC(=O)N[C@H](C(=O)N1CCC[C@H]1c1nc2ccc(-c3ccc4cc(-c5cnc([C@@H]6CCCN6C(=O)[C@@H](NC(=O)OC)[C@@H](C)OC)[nH]5)ccc4c3)cc2[nH]1)C1CCCC1` [compound 528], for which the EC50 was less than 1 nM.

Regarding `COC(=O)N[C@H](C(=O)N1CCC[C@H]1c1nc2ccc(-c3ccc4cc(-c5cnc([C@@H]6CCCN6C(=O)[C@@H](NC(=O)OC)[C@@H](C)OC)[nH]5)ccc4c3)cc2[nH]1)C1CCCCC1` [compound 529], the EC50 is less than 1 nM.

With `COC(=O)N[C@H](C(=O)N1CCC[C@H]1c1ncc(-c2ccc3cc(-c4ccc5nc([C@@H]6CCCN6C(=O)[C@@H](NC(=O)OC)[C@@H](C)OC)[nH]c5n4)ccc3c2)[nH]1)[C@@H](C)OC` [compound 530], the EC50 was less than 1 nM.
